From patent US20020137929A1, “1 - (3-heterocyclylphenyl) isothiourea, -isourea, -guanidine and -amidine herbicidal agents” (Intellectual Property Department, BASF Aktiengesellschaft, priority 1998, published 2002)

How the values were obtained:
[1] = system: TRZAWR (Wheat, Winter, cv Riband); experiment: Postemergence herbicidal evaluation; type: in vivo, Triticum aestivum; conditions: postemergence
Summary of the method: (§1)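 Each compound, dispersed in an acetone/water mix (50/50) carrying 0.5% TWEEN 20, is nozzle-sprayed at 40 psi on approximately two-week-old seedlings at about 0.0156–0.500 kg/ha. Plants are assessed 4–5 weeks afterward on a 0–9 scale relative to control; duplicate tests are averaged.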

[2] = system: TRZAWR (Wheat, Winter, cv Riband); experiment: Preemergence herbicidal evaluation; type: in vivo, Triticum aestivum; conditions: rated 4-5 weeks after treatment
Summary of the method: (§2)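 Herbicidal effect scored visually, 0-9, at 4 to 5 weeks against a control; compound applied preemergence by aqueous acetone spray to seeded soil at about 0.0156 to 0.500 kg/ha.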

CYPIR (Rice Flatsedge) = experiment: Postemergence weed control under flooded paddy conditions; type: in vivo, Cyperus iria; conditions: postemergence weeds, 3-4 weeks after treatment
Summary of the method: (§3)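 Injury ratings (0–9 scale covering stand, vigor, malformation, size, chlorosis and overall appearance versus control) were made three to four weeks after treatment. Test material, about 0.0313 to 0.500 kg/ha a.i. in 50/50 v/v aqueous/acetone, was added to flood water 1.5 to 3 cm deep over 3 to 5 cm weeds and 1.5 to 2.5 leaf rice.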

ORYSAT (Rice, Tebonnet) = experiment: Preemergence herbicidal evaluation; type: in vivo, Oryza sativa, (L.) Tebonnet; conditions: rated 4-5 weeks after treatment
Summary of the method: as §2

ECHCG (Barnyardgrass) = experiment: Preemergence herbicidal evaluation; type: in vivo, Echinochloa crus-galli; conditions: rated 4-5 weeks after treatment
Summary of the method: as §2

SETVI (Foxtail, Green) = experiment: Preemergence herbicidal evaluation; type: in vivo, Setaria viridis; conditions: rated 4-5 weeks after treatment
Summary of the method: as §2

[3] = system: ECHORC (Watergrass (Calif.)); experiment: Postemergence weed control under flooded paddy conditions; type: in vivo, Echinochloa oryzoides; conditions: postemergence weeds, 3-4 weeks after treatment
Summary of the method: as §3

MOOVA (Monochoria) = experiment: Preemergence weed control under flooded paddy conditions; type: in vivo, Monochoria vaginalis; conditions: rated 3-4 weeks after treatment
Summary of the method: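 Silt loam, seeds in top 0.5 cm; flood held 1.5-3 cm; test cpd as acetone/water 50/50 into flood water, ~0.0313-0.500 kg/ha a.i.; greenhouse 3-4 wk; visual 0-9 score vs control.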

[4] = system: CHEAL (Lambsquarters, Common); experiment: Preemergence herbicidal evaluation; type: in vivo, Chenopodium album; conditions: rated 4-5 weeks after treatment
Summary of the method: as §2

[5] = system: ECHORC (Watergrass (Calif.)); experiment: Preemergence weed control under flooded paddy conditions; type: in vivo, Echinochloa oryzoides; conditions: rated 3-4 weeks after treatment
Summary of the method: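 First, seeds or propagules go into the top 0.5 cm of silt loam; next, water is held 1.5 to 3 cm over the soil; then compound (50/50 acetone/water) is pipetted into it at about 0.0313 to 0.500 kg/ha; finally plants are rated visually 0-9 after three to four weeks.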

ABUTH (Velvetleaf) = experiment: Postemergence herbicidal evaluation; type: in vivo, Abutilon theophrasti; conditions: postemergence
Summary of the method: as §1

CN1C(=O)C(F)SC1=Nc1cc(N2C(=O)C3=C(CCCC3)C2=O)c(F)cc1Cl (stereo not shown) [Compound 5, N-{4-chloro-2-fluoro-5-[(5-fluoro-3-methyl-4-oxo-2-thiazolidinylidene)amino]phenyl}-1-cyclohexene-1,2-dicarboximide]
TRZAWR herbicidal rating ([1]; rate 0.0157 kg/ha): 3.0 | TRZAWR herbicidal rating ([1]; rate 0.0313 kg/ha): 3.0 | TRZAWR herbicidal rating ([1]; rate 0.0625 kg/ha): 3.5 | TRZAWR herbicidal rating ([1]; rate 0.1250 kg/ha): 4.5 | TRZAWR herbicidal rating ([1]; rate 0.2500 kg/ha): 5.0 | TRZAWR herbicidal rating ([1]; rate 0.5000 kg/ha): 4.5 | TRZAWR preemergence herbicidal rating ([2]; rate 0.0625 kg/ha): 0.0 | TRZAWR preemergence herbicidal rating ([2]; rate 0.1250 kg/ha): 0.0 | TRZAWR preemergence herbicidal rating ([2]; rate 0.2500 kg/ha): 1.0 | TRZAWR preemergence herbicidal rating ([2]; rate 0.5000 kg/ha): 2.0 | Herbicidal rating CYPIR (CYPIR (Rice Flatsedge); rate 0.1250 kg/ha): 0.0 | Herbicidal rating CYPIR (CYPIR (Rice Flatsedge); rate 0.2500 kg/ha): 0.0 | Herbicidal rating CYPIR (CYPIR (Rice Flatsedge); rate 0.5000 kg/ha): 0.0 | ORYSAT preemergence herbicidal rating (ORYSAT (Rice, Tebonnet); rate 0.0625 kg/ha): 0.0 | ORYSAT preemergence herbicidal rating (ORYSAT (Rice, Tebonnet); rate 0.1250 kg/ha): 0.0 | ORYSAT preemergence herbicidal rating (ORYSAT (Rice, Tebonnet); rate 0.2500 kg/ha): 2.0 | ORYSAT preemergence herbicidal rating (ORYSAT (Rice, Tebonnet); rate 0.5000 kg/ha): 2.0 | ECHCG preemergence herbicidal rating (ECHCG (Barnyardgrass); rate 0.0625 kg/ha): 0.0 | ECHCG preemergence herbicidal rating (ECHCG (Barnyardgrass); rate 0.1250 kg/ha): 2.0 | ECHCG preemergence herbicidal rating (ECHCG (Barnyardgrass); rate 0.2500 kg/ha): 6.0 | ECHCG preemergence herbicidal rating (ECHCG (Barnyardgrass); rate 0.5000 kg/ha): 7.0 | SETVI preemergence herbicidal rating (SETVI (Foxtail, Green); rate 0.0625 kg/ha): 0.0 | SETVI preemergence herbicidal rating (SETVI (Foxtail, Green); rate 0.1250 kg/ha): 2.0 | SETVI preemergence herbicidal rating (SETVI (Foxtail, Green); rate 0.2500 kg/ha): 6.0 | SETVI preemergence herbicidal rating (SETVI (Foxtail, Green); rate 0.5000 kg/ha): 9.0 | Herbicidal rating ECHORC ([3]; rate 0.1250 kg/ha): 0.5 | Herbicidal rating ECHORC ([3]; rate 0.2500 kg/ha): 1.0 | Herbicidal rating ECHORC ([3]; rate 0.5000 kg/ha): 2.0 | Herbicidal rating MOOVA (MOOVA (Monochoria); 0.1250 kg/ha): 2.0 | Herbicidal rating MOOVA (MOOVA (Monochoria); 0.2500 kg/ha): 4.0 | Herbicidal rating MOOVA (MOOVA (Monochoria); 0.5000 kg/ha): 8.0 | CHEAL preemergence herbicidal rating ([4]; rate 0.0625 kg/ha): 4.0 | CHEAL preemergence herbicidal rating ([4]; rate 0.1250 kg/ha): 5.0 | CHEAL preemergence herbicidal rating ([4]; rate 0.2500 kg/ha): 9.0 | CHEAL preemergence herbicidal rating ([4]; rate 0.5000 kg/ha): 9.0 | Herbicidal rating ECHORC ([5]; 0.1250 kg/ha): 1.0 | Herbicidal rating ECHORC ([5]; 0.2500 kg/ha): 2.0 | Herbicidal rating ECHORC ([5]; 0.5000 kg/ha): 4.0 | ABUTH herbicidal rating (ABUTH (Velvetleaf); rate 0.0157 kg/ha): 1.0 | ABUTH herbicidal rating (ABUTH (Velvetleaf); rate 0.0313 kg/ha): 2.0 | ABUTH herbicidal rating (ABUTH (Velvetleaf); rate 0.0625 kg/ha): 9.0 | ABUTH herbicidal rating (ABUTH (Velvetleaf); rate 0.1250 kg/ha): 9.0 | ABUTH herbicidal rating (ABUTH (Velvetleaf); rate 0.2500 kg/ha): 9.0 | ABUTH herbicidal rating (ABUTH (Velvetleaf); rate 0.5000 kg/ha): 9.0

O=C1CSC(=Nc2cc(N3C(=O)C4=C(CCCC4)C3=O)c(F)cc2Cl)N1c1ccccc1 [Compound 3, N-{4-chloro-2-fluoro-5-[(4-oxo-3-phenyl-2-thiazolidinylidene)amino]phenyl}-1-cyclohexene-1,2-dicarboximide]
TRZAWR herbicidal rating ([1]; rate 0.0157 kg/ha): 2.5 | TRZAWR herbicidal rating ([1]; rate 0.0313 kg/ha): 2.5 | TRZAWR herbicidal rating ([1]; rate 0.0625 kg/ha): 3.0 | TRZAWR herbicidal rating ([1]; rate 0.1250 kg/ha): 2.5 | TRZAWR herbicidal rating ([1]; rate 0.2500 kg/ha): 3.0 | TRZAWR herbicidal rating ([1]; rate 0.5000 kg/ha): 4.0 | TRZAWR preemergence herbicidal rating ([2]; rate 0.0313 kg/ha): 0.0 | TRZAWR preemergence herbicidal rating ([2]; rate 0.0625 kg/ha): 0.0 | TRZAWR preemergence herbicidal rating ([2]; rate 0.1250 kg/ha): 0.0 | TRZAWR preemergence herbicidal rating ([2]; rate 0.2500 kg/ha): 2.0 | TRZAWR preemergence herbicidal rating ([2]; rate 0.5000 kg/ha): 2.0 | Herbicidal rating CYPIR (CYPIR (Rice Flatsedge); rate 0.0625 kg/ha): 0.0 | Herbicidal rating CYPIR (CYPIR (Rice Flatsedge); rate 0.1250 kg/ha): 0.0 | Herbicidal rating CYPIR (CYPIR (Rice Flatsedge); rate 0.2500 kg/ha): 0.0 | Herbicidal rating CYPIR (CYPIR (Rice Flatsedge); rate 0.5000 kg/ha): 0.5 | ORYSAT preemergence herbicidal rating (ORYSAT (Rice, Tebonnet); rate 0.0313 kg/ha): 0.0 | ORYSAT preemergence herbicidal rating (ORYSAT (Rice, Tebonnet); rate 0.0625 kg/ha): 0.0 | ORYSAT preemergence herbicidal rating (ORYSAT (Rice, Tebonnet); rate 0.1250 kg/ha): 0.0 | ORYSAT preemergence herbicidal rating (ORYSAT (Rice, Tebonnet); rate 0.2500 kg/ha): 0.0 | ORYSAT preemergence herbicidal rating (ORYSAT (Rice, Tebonnet); rate 0.5000 kg/ha): 1.0 | ECHCG preemergence herbicidal rating (ECHCG (Barnyardgrass); rate 0.0313 kg/ha): 0.0 | ECHCG preemergence herbicidal rating (ECHCG (Barnyardgrass); rate 0.0625 kg/ha): 0.0 | ECHCG preemergence herbicidal rating (ECHCG (Barnyardgrass); rate 0.1250 kg/ha): 2.0 | ECHCG preemergence herbicidal rating (ECHCG (Barnyardgrass); rate 0.2500 kg/ha): 4.0 | ECHCG preemergence herbicidal rating (ECHCG (Barnyardgrass); rate 0.5000 kg/ha): 6.0 | SETVI preemergence herbicidal rating (SETVI (Foxtail, Green); rate 0.0313 kg/ha): 0.0 | SETVI preemergence herbicidal rating (SETVI (Foxtail, Green); rate 0.0625 kg/ha): 4.0 | SETVI preemergence herbicidal rating (SETVI (Foxtail, Green); rate 0.1250 kg/ha): 4.0 | SETVI preemergence herbicidal rating (SETVI (Foxtail, Green); rate 0.2500 kg/ha): 4.0 | SETVI preemergence herbicidal rating (SETVI (Foxtail, Green); rate 0.5000 kg/ha): 9.0 | Herbicidal rating ECHORC ([3]; rate 0.0625 kg/ha): 0.0 | Herbicidal rating ECHORC ([3]; rate 0.1250 kg/ha): 0.0 | Herbicidal rating ECHORC ([3]; rate 0.2500 kg/ha): 1.0 | Herbicidal rating ECHORC ([3]; rate 0.5000 kg/ha): 2.0 | Herbicidal rating MOOVA (MOOVA (Monochoria); 0.0625 kg/ha): 2.0 | Herbicidal rating MOOVA (MOOVA (Monochoria); 0.1250 kg/ha): 9.0 | Herbicidal rating MOOVA (MOOVA (Monochoria); 0.2500 kg/ha): 9.0 | Herbicidal rating MOOVA (MOOVA (Monochoria); 0.5000 kg/ha): 9.0 | CHEAL preemergence herbicidal rating ([4]; rate 0.0313 kg/ha): 6.0 | CHEAL preemergence herbicidal rating ([4]; rate 0.0625 kg/ha): 9.0 | CHEAL preemergence herbicidal rating ([4]; rate 0.1250 kg/ha): 9.0 | CHEAL preemergence herbicidal rating ([4]; rate 0.2500 kg/ha): 9.0 | CHEAL preemergence herbicidal rating ([4]; rate 0.5000 kg/ha): 9.0 | Herbicidal rating ECHORC ([5]; 0.0625 kg/ha): 0.0 | Herbicidal rating ECHORC ([5]; 0.1250 kg/ha): 0.0 | Herbicidal rating ECHORC ([5]; 0.2500 kg/ha): 2.0 | Herbicidal rating ECHORC ([5]; 0.5000 kg/ha): 4.0 | ABUTH herbicidal rating (ABUTH (Velvetleaf); rate 0.0157 kg/ha): 6.0 | ABUTH herbicidal rating (ABUTH (Velvetleaf); rate 0.0313 kg/ha): 6.0 | ABUTH herbicidal rating (ABUTH (Velvetleaf); rate 0.0625 kg/ha): 6.0 | ABUTH herbicidal rating (ABUTH (Velvetleaf); rate 0.1250 kg/ha): 9.0 | ABUTH herbicidal rating (ABUTH (Velvetleaf); rate 0.2500 kg/ha): 6.0 | ABUTH herbicidal rating (ABUTH (Velvetleaf); rate 0.5000 kg/ha): 9.0
